Consider 2 molecules from ChEMBL document CHEMBL1136154, “Anti-atherogenic effects of 3,4-Dihydroxy hydrocinnamides” (Bioorg Med Chem Lett, 2003).

Common to all, as to assay type: functional, organism-based
The species named for assay [1] is Oryctolagus cuniculus. Kind of assay: (§1) HDL-cholesterol-fed rabbit.
The species entered for assay [2] is Oryctolagus cuniculus. Put plainly: Triglyceride after 8 weeks of cholesterol-fed rabbit.
The species named for assay [3] is Oryctolagus cuniculus. The description is as §1. This is another data set of the same source.
Assay [4] is filed under the species Oryctolagus cuniculus. Put plainly: (§2) Total cholesterol-fed rabbit.
For assay [5], the species on record is Oryctolagus cuniculus. Kind of assay: Triglyceride after 0 week of cholesterol-fed rabbit.
For assay [6], the species on record is Oryctolagus cuniculus. The assay is described as §2. This is another data set of the same source.

Turning to `COC(=O)C(C)NC(=O)CCc1ccc(O)c(O)c1` (configuration not stated), the Plasma lipids in the assay filed under Oryctolagus cuniculus [1] turned out to be 81 mg/dL; in the assay filed under Oryctolagus cuniculus [2], 116 mg/dL; in the assay listed under Oryctolagus cuniculus [3], 37 mg/dL; in the assay filed under Oryctolagus cuniculus [4] it was 53 mg/dL; in the assay filed under Oryctolagus cuniculus [5], 53 mg/dL; in the assay filed under Oryctolagus cuniculus [6], 1080 mg/dL.
In the case of `COC(=O)C(Cc1c[nH]c2ccccc12)NC(=O)CCc1ccc(O)c(O)c1` (configuration not stated), the Plasma lipids in the assay filed under Oryctolagus cuniculus [1] was found to be 98 mg/dL; in the assay listed under Oryctolagus cuniculus [2], 104 mg/dL; in the assay filed under Oryctolagus cuniculus [3] it was 32 mg/dL; in the assay listed under Oryctolagus cuniculus [4], 50 mg/dL; in the assay filed under Oryctolagus cuniculus [5], 43 mg/dL; in the assay filed under Oryctolagus cuniculus [6], 1070 mg/dL.
